# Results taken from patent publication US7411002B2, “Polycationic sulfonamides and use thereof” (priority 2006, dated 2008).
# Legend:
# [1] = Rapid-throughput BODIPY-TR cadaverine (BC) fluorescence displacement assay for binding affinity to LPS; details: half-maximal effective displacement of BODIPY-TR cadaverine probe from LPS; 50 mM Tris buffer, pH 7.4; read-out: Binding affinity (BC displacement) ED50 value
# Method: Rapid-throughput Fluorescence Displacement Assay for quantifying binding affinities to LPS. […] Polymyxin B (PMB), a peptide antibiotic known to bind and neutralize LPS^65 serves as the positive control and reference compound for every plate, enabling the quantitative assessment of repeatability and reproducibility (CV and Z′ factors) for the assay. Automated liquid handling is performed on a Precision 2000 automated microplate pipetting system, programmed using the Precision Power software, Bio-Tek Instruments Inc., VT, USA. Results are reported as half-maximal effective displacement of probe (ED50) (Tables A-F). In all experiments, Polymyxin B (PMB), a decapeptide antibiotic, known to bind and neutralize LPS,^66-69 is used as a reference compound.
# [2] = test system: LPS-induced nitric oxide production in murine macrophage J774A.1 cells; test: NO inhibition (Griess nitrite assay) in LPS-stimulated murine macrophage J774A.1 cells; type: cell-based; details: Mus musculus, J774.A1, 10 ng/ml LPS, 16 h
# Method: Assessment of neutralization of LPS toxicity: NO inhibition activity. Nitric oxide production is measured as total nitrite in murine macrophage J774A.1 cells using the Griess assay^70 as described previously.^71 J774A.1 cells are plated at ˜10^5/ml in a volume of 40 μl/well, in 384-well, flat-bottomed, cell culture treated microtiter plates and subsequently stimulated with 10 ng/ml lipopolysaccharide (LPS). Concurrent to LPS stimulation, serially diluted concentrations of test compounds are added to the cell medium and left to incubate for 16 h. Polymyxin B is used as reference compound in each plate. Positive-(LPS stimulation only) and negative-controls (J774A.1 medium only) are included in each experiment. Nitrite concentrations are measured by adding 40 μl of supernatant to equal volumes of Griess reagents (50 μl/well; 0.1% NED solution in ddH2O and 1% sulfanilamide, 5% phosphoric acid solution in ddH2O) and incubating for 15 minutes at room temperature in the dark. Absorbance at 535 nm is measured using a Molecular Devices Spectramax M2 multifunction plate reader (Sunnyvale, Calif.). Nitrite concentrations are interpolated from standard curves obtained from serially diluted sodium nitrite standards. IC50 values are determined for compounds that neutralize LPS inhibit NO production in a dose-dependent manner (Tables A-F). Results in this assay parallel those in the binding assay.
# [3] = test system: LPS-induced NF-κB induction in human embryonic kidney 293 cells cotransfected with TLR4, CD14 and MD2; test: Inhibition of LPS induction of NF-κB (seAP reporter) in HEK 293 cells cotransfected with TLR4, CD14 and MD2; type: cell-based; details: Homo sapiens, HEK293; inhibition of LPS-induced NF-κB induction, HEK 293 TLR4/CD14/MD2 reporter cells; read-out: NFκβ inhibition IC50 value
# Source text: Assessment of Inhibition of Cytokine Induction (NF-κB): The inhibition of induction of NF-κB (a key transcripitional activator of the innate immune system, leading to uncontrolled cytokine release^72,73 which ultimately leads to multiple organ failure and the shock syndrome) is quantified using human embryonic kidney 293 cells cotransfected with TLR4 (LPS receptor), CD14 and MD2 (co-receptors), available from InvivoGen, Inc. (HEK-Bluetm, San Diego, Calif.), as per protocols provided by the vendor. Stable expression of secreted alkaline phosphatase (seAP) under control of NF-κB/AP-1 promoters is inducible by LPS, and extracellulare seAP in the supernatant is proportional to NF-κB induction. seAP is assayed spectrophotometrically using an alkaline phosphatase-specific chromogen at 620 nm using a rapid-throughput, automated protocol employing a Bio-Tek P2000 liquid handler. Results showing the ability of polycationic sulfonamide compounds to inhibit the induction of NF-κB by LPS are shown in Tables A-F.
# [4] = test system: LPS-induced lethality in CF-1 mice; test: Mouse lethality assay (D-galactosamine-sensitized mice, supralethal LPS challenge); type: in vivo; details: FIG. 9; for mice protected from LPS lethality: 200 μg/mouse compound i.p., supralethal 200 ng LPS challenge, lethality at 24 h
# Source text: Compound MQTS 2358 represents spermine-sulfonamide Series A (SPM). Compound MQTS 2383 represents homologated spermine-sulfonamide Series B (HOMO-SPM). Compound MQTS 2389 represents branched homologated spermine-sulfonamide Series D (BRANCHED-HOMO-SPM). Also included in FIG. 9 are positive control compounds MQTS 3938 and MQTS 3942 (L-Lys(C18-alkyl)-spermine and D-Lys(C18-alkyl)-spermine, respectively) previously reported.^60 As shown in this figure, i.p. dosing with these compounds affords significant protection from super-lethal challenges with LPS in this model. Dosages of 200 μg/mouse) protected 5 out of 5 mice with all compounds except MQT 2389 which appears to have toxic effects above 50 μg/mouse dosages. Furthermore, treatment with lower dosages of these compounds also affords significant protection from the toxic effects of LPS.
# Mouse lethality experiments: Female, outbred, 9- to 11-week-old CF-1 mice (Charles River, Wilmington, Mass.) weighing 22-28 g are used as described elsewhere.^71 Upon arrival, the mice are allowed to acclimatize for a week prior to experimentation, housed 5 per cage in a controlled environment at the AALAC-accredited University of Kansas Animal Care Facility, and allowed access to mouse chow and water ad libitum. The animals are sensitized to the lethal effects of LPS by D-galactosamine.^74-76 The lethal dose causing 100% mortality (LD100) dose of the batch of LPS used (E. coli 0111:B4 procured from Sigma) is first determined by administering D-galactosamine (800 mg/kg) and LPS (0, 10, 20, 50, 100, 200 ng/mouse) as a single injection intraperitoneally (i.p.) in freshly prepared saline to batches of five animals in a volume of 0.2 ml. […] In experiments designed to test dose-response effects of the polycationic sulfonamides in affording protection against LPS-induced lethality, mice received graded doses of compound diluted in saline, i.p., in one flank, immediately before a supralethal (200 ng) LPS challenge, which is administered as a separate i.p. injection into the other flank. In experiments in which the temporal window of protection is to be examined, a fixed dose of 200 μg/mouse of compound is administered at various times, before, or after supralethal (200 ng/mouse) LPS challenge. Lethality is determined at 24 h post LPS challenge.
compound,measurement,setting,value
"CCCCCCCCS(=O)(=O)NCCCN(CCCNCCCNCCCCNCCCN)CCCNS(=O)(=O)CCCCCCCC [MQTS 2389, N^1-Bis[N-octanylsulfonyl-3-aminopropyl]-1,18-diamino-5,9,14-triazaoctadecane]",EC50,[1],2620 nM
same,IC50,[2],320 nM
same,IC50,[3],300 nM
same,dosage above which toxic effects appear,[4]; i.p. dosing in mouse lethality assay,above 50 μg/mouse
"L-Lys(C18-alkyl)-spermine [MQTS 3938, reference compound]",mice protected from LPS lethality,[4],5 out of 5
"D-Lys(C18-alkyl)-spermine [MQTS 3942, reference compound]",mice protected from LPS lethality,[4],5 out of 5
CCCCCCCCCCCCCCCCS(=O)(=O)NCCCNCCCCNCCCN [MQTS 2358],EC50,[1],3870 nM
same,IC50,[2],450 nM
same,IC50,[3],280 nM
same,mice protected from LPS lethality,[4],5 out of 5
CCCCCCCCCCCCCCCCS(=O)(=O)NCCCNCCCNCCCCNCCCN [MQTS 2383],EC50,[1],4710 nM
same,IC50,[2],120 nM
same,IC50,[3],200 nM
same,mice protected from LPS lethality,[4],5 out of 5
